Test results from US7998970B2, “Use of finasteride, dutasteride and related compounds for the prevention or treatment of neurologically-associated disorders” (ProteoSys AG, priority 2004, dated 2011).
Counter-ions that a name gives are not always drawn.

Key:
[1] = system: neurons derived from D3 embryonic stem (ES) cells; assay: Chemical ischemia-induced neuronal death and neuroprotection, cell culture model; type: cell-based, mouse; conditions: for EC50: Mus musculus, Neuron, read-out: EC50 of neuroprotective effect, chemical ischemia; for neuroprotective effect compared between compounds: each 1 μM, FIG. 3
Description: (§1) For all experiments, D3 embryonic stem (ES) cells derived from 129/sv mice [Okabe et al., 1996] were cultivated for 12 days, with passages on days 2, 4, 7 and 9 as described previously [Sommer et al., 2004]. Insult conditions: Cells (24-well plates) were pre-incubated with or without 20 nM EPO (neuroprotective agent, positive control) in fresh medium for 24 hours at 37° C. Cells were rinsed once with low K^+ solution (140 mM NaCl, 4.7 mM KCl, 1.2 mM KH2PO4, 2.5 mM CaCl2, 1.2 mM MgSO4, 11 mM glucose, 15 mM Hepes-NaOH, pH 7.35). Cells (either with or without EPO pre-incubation) were incubated for up to 45 min (37° C.) with either low K^+ solution or with glucose-free low K^+ solution supplemented with 1 mM KCN chemical ischemia solution [Kume et al., 2002, Schrattenholz et al., 2005]. This insult relates to ischemic conditions in stroke. In addition similar cellular insults were established using glutamatergic agonists to induce excitotoxicity (Sommer et al., 2004) and respective neuroprotection related to stroke and epilepsy; and β-amyloid induced toxicity (incubation of neurons with 10 μM β-amyloid1-40 for 10 min, resulting in Ca-influx and neuronal death) and respective rescue related to Alzheimer's disease. Vitality control to assess numbers of surviving neurons was performed in all of these cases by a brief stimulation with a low dose of glutamate (10 μM). Afterwards, cells were washed three times with ice cold phosphate buffered saline (PBS), and then proteins were harvested. Suspended cells were pelleted at 500×G, and lysed into 9M urea 4% CHAPS. The cell lysate was desalted with a NAP-10 column (Amersham Biosciences), preequilibrated with the same buffer, and protein content was determined.
Functional tests by calcium imaging were performed essentially as described [Sommer et al., 2004]. Briefly, cells were loaded with 2 μM of fura-2 AM in DMEM for 45 min at 37° C. in the dark. Measurements of relative changes in [Ca^2+] were made on an inverted epifluorescence microscope (Olympus IX70 S1F2) with a Polychrom IV Monochromator (Xe-lamp, USHIO). Excitation wavelengths (λ1, λ2) and the emission wavelength were 340, 380 and 510 nm, respectively. Acquisition and analysis of data after appropriate stimulation were performed by using MetaFluor software (Universal Imaging Corporation). Image resolution was 168×129 pixels (binning 8×8, pixel size 6.8×6.8 μm). Only cells identified as neurons by morphological criteria and occasional immunostaining (not shown) and those whose calcium levels returned to the resting state after the first stimulation were taken into account. Controls included nominal zero calcium (negative) and 5 μM ionomycin (positive), 10 μM glutamate (positive) and depolarisation (55 mM K+) (positive). Pharmacological agents were applied by a multi-valve, single-output focal drug application device (ALA Scientific) with the perfusion system DAD-12. […] During each stimulation event 20 image pairs were acquired.

[2] = system: neurons derived from D3 embryonic stem (ES) cells; assay: Excitotoxic paradigm (100 μM NMDA), neuroprotection in cell culture model; type: cell-based
Description: as §1
(§2) Functional tests by calcium imaging were performed essentially as described [Sommer et al., 2004]. Briefly, cells were loaded with 2 μM of fura-2 AM in DMEM for 45 min at 37° C. in the dark. Measurements of relative changes in [Ca^2+] were made on an inverted epifluorescence microscope (Olympus IX70 S1F2) with a Polychrom IV Monochromator (Xe-lamp, USHIO). Excitation wavelengths (λ1, λ2) and the emission wavelength were 340, 380 and 510 nm, respectively. Acquisition and analysis of data after appropriate stimulation were performed by using MetaFluor software (Universal Imaging Corporation). Image resolution was 168×129 pixels (binning 8×8, pixel size 6.8×6.8 μm). Only cells identified as neurons by morphological criteria and occasional immunostaining (not shown) and those whose calcium levels returned to the resting state after the first stimulation were taken into account. Controls included nominal zero calcium (negative) and 5 μM ionomycin (positive), 10 μM glutamate (positive) and depolarisation (55 mM K+) (positive). […]

[3] = system: neurons derived from D3 embryonic stem (ES) cells; assay: β-amyloid-induced neuronal death (10 μM Aβ1-40), rescue in cell culture model; type: cell-based
Description: as §1, §2

Kv1.5+Kvβ2.1 = molecular target: T1, Kv1.5+Kvβ2.1 (Homo sapiens, UniProt Q13303); assay: K+ channel electrophysiology, inside-out patches of transfected Xenopus oocytes; type: cell-based; conditions: 1 μM Finasteride; Xenopus oocytes with Kv1.5 and Kvβ2.1, inside-out patches, FIG. 5
T1 construct: expressed in transfected cells; host or cells: Xenopus oocytes
T1 sequence (Q13303 whole entry): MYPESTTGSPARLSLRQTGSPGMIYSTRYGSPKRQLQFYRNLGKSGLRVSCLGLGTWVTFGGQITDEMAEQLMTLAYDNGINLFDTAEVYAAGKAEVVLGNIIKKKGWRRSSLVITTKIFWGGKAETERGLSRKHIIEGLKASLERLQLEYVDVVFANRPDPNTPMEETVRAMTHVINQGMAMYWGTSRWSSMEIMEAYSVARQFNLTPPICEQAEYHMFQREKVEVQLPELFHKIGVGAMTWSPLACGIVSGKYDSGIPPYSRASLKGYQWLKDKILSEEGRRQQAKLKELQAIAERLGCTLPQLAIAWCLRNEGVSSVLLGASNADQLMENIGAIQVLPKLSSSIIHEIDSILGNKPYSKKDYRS
T1 sequence (P22460 whole entry partner): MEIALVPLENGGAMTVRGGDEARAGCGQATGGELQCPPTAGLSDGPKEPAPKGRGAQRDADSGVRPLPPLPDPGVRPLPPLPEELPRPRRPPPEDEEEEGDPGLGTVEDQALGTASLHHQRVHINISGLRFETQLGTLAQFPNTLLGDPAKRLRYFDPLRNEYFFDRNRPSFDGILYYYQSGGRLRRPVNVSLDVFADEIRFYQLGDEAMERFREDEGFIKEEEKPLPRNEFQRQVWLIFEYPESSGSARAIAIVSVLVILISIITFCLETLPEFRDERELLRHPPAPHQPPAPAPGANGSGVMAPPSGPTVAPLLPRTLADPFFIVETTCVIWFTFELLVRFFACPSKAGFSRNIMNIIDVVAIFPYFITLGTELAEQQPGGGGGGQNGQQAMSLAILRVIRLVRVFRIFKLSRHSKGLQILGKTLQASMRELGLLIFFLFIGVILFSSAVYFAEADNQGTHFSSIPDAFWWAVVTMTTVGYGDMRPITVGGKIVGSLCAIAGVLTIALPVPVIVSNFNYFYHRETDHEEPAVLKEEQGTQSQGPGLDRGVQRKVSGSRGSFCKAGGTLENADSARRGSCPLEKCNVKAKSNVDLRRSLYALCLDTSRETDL
Description: Xenopus oocytes were transfected with various subunit combinations of potassium channels, like Kv1.5+Kvβ2.1. Subsequently activation curves using inside-out patches (external: 2 mM K^+, internal: 96 mM K^+) were measured, they represent IV-curves using standard internal buffer solution (HK+), which were recorded in the presence and absence of 1 μM Finasteride. Corresponding plots of G/Gmax versus the membrane potential were used to evaluate related effects.

[4] = system: mitochondrial permeability transition pore (MPTP); assay: Functional test of the MPTP by Rhodamine-123 assay; type: cell-based, mouse; conditions: for inhibition of release of Rhodamine-123 from mitochondria after opening of the MPTP: 0.5, 1, 10, 20 μM, FIG. 6
Description: Ant1 is one of the essential components of the MPTP, and thus was tested functionally by a fluorescent assay described by Metzger et al. (Metzger et al. Optical assessment of motoneuron function in a “twenty-four-hour” acute spinal cord slice model from fetal rats. Journal of Neuroscience Methods 141, 2005, 309320). Briefly, cells were incubated with Rhodamine-123 ([…]) at 37° C. for 20 min. Rhodamine-123 was dissolved at 5 mg/ml in ethanol. For measurements of the membrane potential ψ, cells loaded with Rhodamine-123 were excited at 480 nm and emission was monitored at 565 nm. The lipophilic cation Rhodamine-123 accumulates in mitochondria where its fluorescence intensity is quenched at high concentrations (Chen, 1988; Scaduto and Grotyohann, 1999). A depolarizing change of ψ is indicated by an increase in the intensity of fluorescence in response to dequenching of the dye after release from mitochondria (Emaus et al., 1986; Duchen, 1992, 2000). Thus we refer to the relative change in ψ as the percentage change in Rhodamine-123 fluorescence (Schuchmann et al., 2000).

G361 cells = assay: Autophagy-related assay employing WIPI-staining; type: cell-based, human; conditions: 0.25, 0.5, 1.0 or 2.0 μM tested; FIG. 7
Description: The presence of autophagy is quantified by a polyclonal hWIPI-1 antiserum, which was generated by immunizing rabbits (Charles River) with two synthetic peptides representing C-terminal regions in hWIPI-1 (363nkendlrpslp373, 407lrgevipehefatgpv422) and used at a dilution of 1:5000 in ECLWestern blotting detections (Amersham), and at 1:250 for indirect immunofluorescent stainings.
For these stainings, cells were fixed in 3.7% paraformaldehyde (15 min, RT) and analysed by confocal microscopy (see below). To visualize endogenous hWIPI-1 in G361 cells consecutive incubations were conducted using C-terminal hWIPI-1 antiserum at 1:250 (30 min, RT) and Alexa 546 or Alexa 488 labelled goat anti-rabbit IgG (Molecular Probes) at 1:500 (30 min, RT) in PBS/0.1% Tween (blocking/permeabilization: PBS/0.1% Tween/1% BSA, 30 min RT; washing: PBS/0.1% Tween). For nuclear staining, TO-PRO-3 (Molecular Probes) was used at 1:1000. Finally, cells were mounted in Vectashield Mounting Medium (Vector Laboratories) and kept in the dark (41C). Confocal laser scanning microscopy was conducted using a LSM510 microscope (Zeiss) and a 63— 1.4 DIC Plan-Apochromat oil-immersion objective. GFP and Alexa 488 were excited at 488 nm with the internal argon-ion laser. Alexa 546 and TO-PRO-3, respectively, were excited at 543 and 633 nm with helium-neon lasers. […]

β-amyloid plaques = assay: In vivo assay of β-amyloid plaque formation in a mouse model of Alzheimer's disease (APPPS mice)
Description: A quite aggressive model for Alzheimer's disease is a double transgenic mouse line expressing mutated human amyloid precursor protein (APP) and presinilin-1 (PS). Between months 4 and 5 a maximal additional increase of the plaque load of 35-40% can be expected (exponential fit, FIG. 9).
Dutasteride was administered orally every day after animals became 4 months old, for 30 days at a maximum concentration of 2 mg/day.
Technically, images were recorded from whole brain sections (Olympus Fluorescence microscope AX70, Digital camera Casio QV4000; resolution 2240×1680 Pixel, with constant overall intensity in all images) A software-assisted procedure was then used to quantify overall areas of NT12 stain (anti-β-amyloid stain) (plaque area), and NT12 stain volumes in these areas by defining thresholds and relating them to overall proportions of respective slices (plaque volume).

[5] = Mus musculus, Neuron; read-out: EC50 of neuroprotective effect, excitotoxic paradigm (100 μM NMDA)
[6] = Mus musculus, Neuron; read-out: EC50 of neuroprotective effect, β-amyloid toxicity (10 μM Aβ 1-40)
[7] = oral, 30 days, months 4 to 5, plaque area or plaque volume, order not stated

| SMILES | protection against neuronal death induced by chemical ischemia ([1]; 100 nM-1 μM present during the ischemic insult, FIG. 2) | surviving rate of neurons after chemical ischemia ([1]; 1 μM, control cells 4.8±3.4%) [%] | EC50 [1] [nM] | concentration at which the neuroprotective effect peaks ([1]; dose response, FIG. 2) | neuroprotective effect compared between compounds [1] | EC50 [2, 5] [nM] | EC50 [3, 6] [nM] | shift of the IV-curve (G/Gmax versus membrane potential) (Kv1.5+Kvβ2.1) | inhibition of release of Rhodamine-123 from mitochondria after opening of the MPTP [4] | enhancement of autophagy in surviving G361 cells (G361 cells) | EC50 ([2]; Mus musculus, Neuron, read-out: EC50 of neuroprotective effect, excitotoxic paradigm (100 μM NMDA)) [nM] | EC50 ([3]; Mus musculus, Neuron, read-out: EC50 of neuroprotective effect, β-amyloid toxicity (10 μM Aβ 1-40)) [nM] | inhibition of MPTP-formation and opening during ischemic conditions ([4]; neural derivatives of embryonic stem cells) | overall reduction of plaque load versus non-treated controls, first value of 'respectively' (β-amyloid plaques; [7]) [%] | overall reduction of plaque load versus non-treated controls, second value of 'respectively' (β-amyloid plaques; [7]) [%] | load of β-amyloid plaques (NT12 stain) in treated versus non-treated group (β-amyloid plaques; oral, daily for 30 days from month 4, max 2 mg/day, cortical slices, FIG. 8) | reduction of the plaque load relative to the increase expected between months 4 and 5 (β-amyloid plaques; related to expected increase of 35-40%) |
| --- | --- | --- | --- | --- | --- | --- | --- | --- | --- | --- | --- | --- | --- | --- | --- | --- | --- |
| CC(C)(C)NC(=O)[C@H]1CC[C@H]2[C@@H]3CC[C@H]4NC(=O)C=C[C@]4(C)[C@H]3CC[C@]12C [Finasteride, 17β-(N-tert-butylcarbamoyl)-4-aza-5α-androst-1-en-3-one] | substantial protection | 72.1±4.4 | 300 | about 1 μM | comparable and strongest | 2000 | 100 | small shift of the IV-curve towards more negative potential | dose-dependent | dose-dependent effect | – | – | – | – | – | – | – |
| CC12CCC3C(CC[C@H]4NC(=O)CCC34C)C1CCC2C(=O)NCCN (stereo partly drawn) [AEOAA, 4α,6α-dimethyl-2-oxo-hexadecahydro-indeno[5,4-f]quinoline-7-carboxylic-(2-amino-ethyl)-amide hydrochloride] | – | – | 5000 | – | considerably less active | 5000 | 4000 | – | – | – | – | – | – | – | – | – | – |
| CC12CCC3C(CC[C@H]4NC(=O)CCC34C)C1CCC2C(=O)O (stereo partly drawn) [COAAA, 4α,6α-di methyl-2-oxo-hexadecahydro-indeno[5,4-f]quinoline-7-carboxylic-acid] | – | – | 1000 | – | nearly as efficacious | 5000 | 2000 | – | – | – | – | – | – | – | – | – | – |
| C[C@]12C=CC(=O)N[C@@H]1CC[C@@H]1[C@@H]2CC[C@]2(C)[C@@H](C(=O)Nc3cc(C(F)(F)F)ccc3C(F)(F)F)CC[C@@H]12 [Dutasteride, 5α,17β-N-[2,5-bis(trifluoromethyl)phenyl]-3-oxo-4-azaandrost-1-ene-17-carboxamide] | – | – | 300 | – | comparable and strongest | – | – | – | dose-dependent | dose-dependent effect | 1500 | 100 | marked and significant inhibition | 12 | 13 | significantly lower | 30-32.5% |
